Results reported in a melting point compilation (Tetko et al.; mined from patent text by program, amines drawn as free bases though some values may be those of a salt).

Structure (SMILES) | melting point [°C]
CCCCCCCOc1ccc(-c2ccc(N=Nc3ccc(N=Nc4ccc(N(C)C)cc4)cc3)cc2)cc1 | 201 to 203
CC1(C)CCC(C)(C)c2cc(-c3cc(Br)cc(C(=O)O)c3)ccc21 | 165
COC(=S)OC(C(=O)O)c1ccccc1 (stereo not given) | 86 to 87
COc1cc2c(cc1O)CCCC(=O)N2Cc1cc(OC)c(OC)c(OC)c1 | 170 to 171
CCCCCCCCCCOc1cc(OCCCCCCCCCC)cc(C(=O)O)c1 | 56 to 58
CCCN1C(=O)N(C2CCN(Cc3cccc(CO)c3)CC2)C(c2ccccc2)c2ccccc21 (stereo not given) | 108 to 112
CC(C)c1ccc(OC(C)(Cc2ccc(OCCNC(=O)c3ccc(OCC(F)(F)C(F)F)nc3)cc2)C(=O)O)cc1 (stereo not given) | 173 to 175
CCCCC1(CC)CSc2ccccc2N(c2ccccc2)C1=O (stereo not given) | 90
Cc1ccc(NC(=O)c2cc([N+](=O)[O-])ccc2NC(=O)CF)c(C)c1 | 227 to 229
O=C(NC(=O)N1CCC(COc2ccccc2)CC1)c1ccc(O)cc1 | 207
CC(C)(C)OC(=O)c1ccc(OCCCCl)cc1 | 57.5 to 58.5
Cc1cc(-n2ccnc2)c2cccc(OCc3c(Cl)ccc(N(C)C(=O)CN4C(=O)c5ccccc5C4=O)c3Cl)c2n1 | 200 to 203
CN1CCN(C2CCN(c3ccc(Nc4ncc5cc6ccccc6n5n4)cc3)CC2)CC1 | 226 to 229
O=C(O)CCC/C=C\[C@@H]1C[C@@H](NS(=O)(=O)c2ccc(Cl)cc2)CN1Cc1ccccc1 | 87 to 91
CN(C)C=Nc1c(C#N)c(=O)n(C)c(=O)n1C | 174 to 175
Brc1ccc(N(Cc2ccccc2)Cc2ccccc2)cc1 | 123

Second part, the compound after the results:

melting point [°C] | Structure (SMILES)
167 to 168 | NC(=O)Cc1ccc(C2CCCCC2)cc1
126 to 128 | Cn1nc(-c2cccc(F)c2)n(C)c1=S
117 to 121 | CS(=O)c1ccc(COC(=O)N2CCN(CC3(C)Cn4cc([N+](=O)[O-])nc4O3)CC2)cc1 (stereo not given)
221 | CCOC(=O)c1cn(C)c2nc3cc(N4CCN[C@@H](c5ccccc5)C4)c(F)cc3cc2c1=O
57 to 59 | CC(C(=O)CCl)c1ccc(-c2ccccc2)c(F)c1 (stereo not given)
183 | Nc1n[nH]c2c(F)c(F)ccc12
185 | CCC(C(=O)c1ccc(Cl)cc1)n1ncn(-c2cnc(N3CCN(c4ccc(OC)cc4)CC3)nc2)c1=O (stereo not given)
104 to 105 | CCN(CC)CCCNC(=O)Cn1ncc(-c2ccc(Cl)cc2)c1-c1ccccc1
44 to 47 | CC(Oc1ccc(Oc2ccc(C(F)(F)F)cn2)cc1)C(=O)OCCOCc1ccccc1 (stereo not given)
152 to 153 | CCCOc1ccc(-c2ccc3c(c2)C=C(C(=O)OC)CCN3C=O)cc1
152 | [N-]=[N+]=CC(=O)c1ccc(Br)c(S(N)(=O)=O)c1
250 to 252 | CN(C)C(=O)c1cc(-c2ccccc2)c(=O)n2c1-c1cc(Cl)ccc1CN2
160 to 161 | CNC(=O)c1cc(-c2ccc(OC)cc2)nn(CCO)c1=O
226 to 228 | CCCc1nc2c(N)nc(C)c(C)c2n1CCCC(N)=O
206 to 207 | O=C1c2cccnc2N(N2CCCCC2)C2=NCCN12
96 to 97 | CCC(N)=C(C(C)=O)C(=O)N(CCN(C)C)c1cccc(F)c1
124 to 125 | CON=C1CCCc2cc(C(=O)OC)c(C)nc21
150 to 152 | COc1ccc2cc(C(C)(O)C(=O)O)ccc2c1 (stereo not given)
91 to 93 | CC(C)Cc1nn(C)c(=O)c2cn(Cc3ccncc3)cc12
205 to 206 | Cc1ccc2ccn3c(C(F)(F)F)nnc3c2c1
179 to 181 | CCOC(=O)c1[nH]c(=O)c(CC(C)C)[n+]([O-])c1N
187 to 189 | O=c1[nH][nH]c(=O)n1CCOc1ccccc1
228 to 230 | O=C(O)Cc1cccc2c(-c3ccc(C(F)(F)F)cc3)nccc12
> 300 | O=C(O)c1cn(-c2ccc(F)cc2)c2c(F)c(N3Cc4cccc(F)c4C3)c(F)cc2c1=O
